Measurements from patent US10328080B2, “Therapeutic combination of PI3K inhibitor and a BTK inhibitor” (Acerta Pharma B.V., priority 2013, dated 2019).

How the values were obtained:
ID8 ovarian cancer = experiment: ID8 syngeneic orthotropic ovarian cancer murine model; format: in vivo, mice; details: 15 mg/kg/BID given orally
Text: Human ovarian cancer models, including the ID8 syngeneic orthotropic ovarian cancer model and other animal models, are described in Fong and Kakar, J. Ovarian Res. 2009, 2, 12; Greenaway et al., Gynecol. Oncol. 2008, 108, 385-94; Urzua et al., Tumour Biol. 2005, 26, 236-44; Janat-Amsbury et al., Anticancer Res. 2006, 26, 3223-28; Janat-Amsbury et al., Anticancer Res. 2006, 26, 2785-89. […] The results of the study are shown in FIG. 42, FIG. 43, FIG. 44, FIG. 45, FIG. 46, FIG. 47, FIG. 48, and FIG. 49.

[1] = system: KPC derived mouse pancreatic cancer cells; experiment: KPC derived mouse pancreatic cancer model, tumor infiltrating MDSCs and TAMs; format: in vivo; details: 15 mg/kg/BID given orally
Method: In this study, KPC derived mouse pancreatic cancer cells (KrasG12D;Trp53R^872H;Pdx1-Cre) were injected into the pancreases.
Single cell suspensions from tumor samples. Mouse tumor tissue was collected and stored in PBS/0.1% soybean trypsin inhibitor prior to enzymatic dissociation. Samples were finely minced with a scissors and mouse tissue was transferred into DMEM containing 1.0 mg/ml collagenase IV (Gibco), 0.1% soybean trypsin inhibitor, and 50 U/ml DNase (Roche) and incubated at 37 C for 30 min. with constant stirring while human tissue was digested in 2.0 mg/ml collagenase IV, 1.0 mg/ml hyluronidase, 0.1% soybean trypsin inhibitor, and 50 U/ml DNase for 45 minutes. Suspensions were filtered through a 100 micron filter and washed with FACS buffer (PBS/0.5% BSA/2.0 mM EDTA) prior to staining. Two million total cells were stained with antibodies as indicated. Intracellular detection of FoxP3 was achieved following permeabilization with BD Perm Buffer III (BD Biosciences) and eBioscience Fix/Perm respectively. Following surface staining, samples were acquired on a BD Fortessa and analyzed using FlowJo (Treestar) software.

[2] = system: pancreatic tumor-bearing mice; experiment: Orthotopic pancreatic cancer model (KPC cells in C57BL/6 mice); format: in vivo; details: aggressive orthotopic PDA model, 15 mg/kg oral of each drug
Method: Cell line derived from KrasG12D;Trp53R^872H;Pdx1-Cre (KPC) mice were orthotopically implanted into the head of the pancreas after 35 passages. Based on the mice background from where the cell lines were generated, 1×10^6 cells were injected in C57BL/6 mice. Throughout the experiment, animals were provided with food and water ad libitum and subjected to a 12-h dark/light cycle. Animal studies were performed in accordance with the U.S. Public Health Service “Guidelines for the Care and Use of Laboratory Animals” (IACUC). After euthanization, pancreatic tumors were dissected out, weighed and single cell suspensions were prepared for flow cytometry analysis.

canine B cell lymphoma = experiment: Veterinary clinical trial in companion dogs with lymphoma; format: in vivo; details: Arm 1 monotherapy, Arm 2 combination
Method: Enrollment has completed for Arm 1 and is ongoing for Arm 2.
Intra-subject dose escalation was allowed. Six of the 11 dogs that initiated at 2.5 or 5 mg/kg once daily were escalated and completed the study with dosages of 10 mg/kg twice daily. Among all the dose cohorts, 8 dogs had shrinkage of target lesions >20%; the best tumor responses were between 45-49% reduction in the sum of target lesions in two dogs.

human platelets, GPVI = experiment: GPVI platelet aggregation (Convulxin-induced); format: cell-based; details: CVX-induced, FIG. 56 and FIG. 57
Method: GPVI platelet aggregation was measured for Formula (XVIII) and Formula XX-A (ibrutinib). Blood was obtained from untreated humans, and platelets were purified from […] by centrifugation. Cells were resuspended to a final concentration of […] in buffer containing 145 mmol/L NaCl, 10 mmol/L HEPES, 0.5 mmol/L Na2HPO4, 5 mmol/L KCl, 2 mmol/L MgCl2, 1 mmol/L CaCl2, and 0.1% glucose, at pH 7.4. Stock solutions of […] were prepared on the day of experimentation and added to platelet suspensions 5 minutes (37° C., 1200 rpm) before the induction of aggregation. Aggregation was assessed with a Chronolog Lumi-Aggregometer (model 540 VS; Chronolog, Havertown, Pa.) and permitted to proceed for 6 minutes after the addition of agonist. The results are reported as maximum percent change in light transmittance from baseline with platelet buffer used as a reference.
In FIG. 57, the results of CVX-induced (250 ng/mL) human platelet aggregation results before and 15 min after administration of the BTK inhibitors to 6 healthy individuals are shown.

[3] = system: human platelet-mediated thrombosis; experiment: In vivo human thrombus formation in the VWF HA1 mice model (laser injury); details: human platelets preincubated with BTK inhibitor (0.1, 0.5 or 1 μM) 30 min; laser-induced injury in VWF HA1 mice
Method: Purified human platelets were preincubated with various concentrations of the BTK inhibitors (0.1 μM, 0.5 μM, or 1 μM) or DMSO and then administered to VWF HA1 mice, followed by laser-induced thrombus formation.
The objective of this study was to evaluate in vivo thrombus formation in the presence of BTK inhibitors.

## CC#CC(=O)N1CCC[C@H]1c1nc(-c2ccc(C(=O)Nc3ccccn3)cc2)c2c(N)nccn12 [Formula (XVIII), (S)-4-(8-amino-3-(1-(but-2-ynoyl)pyrrolidin-2-yl)imidazo[1,5-a]pyrazin-1-yl)-N-(pyridin-2-yl)benzamide]
ID8 ovarian cancer; tumor-bearing mice
  CD8+ T cells: increase
  Immunosuppressive tumor associated Tregs: significant reduction
  Immunosuppressive tumor-associated lymphocytes: significant reduction
ID8 ovarian cancer; tumor-bearing mice, total B cells and Bregs
  Immunosuppressive B cells: significant reduction
ID8 ovarian cancer; vs vehicle
  ID8 ovarian cancer growth: impairs
[1]
  Tumor burden: reduction
[2]
  Tumor burden: significantly reduced
[2]; flow cytometry
  Immature myeloid infiltrate: decreased
  Number of immunosuppressive Tregs: reduced
  Number of tumor associated macrophages: reduced
Canine B cell lymphoma
  Complete responses (CR): not observed
Canine B cell lymphoma; preliminary
  Median time on study (all subjects): 24 days
Human platelets, GPVI
  Inhibition of GPVI platelet aggregation: does not

## C=CC(=O)Nc1cccc(Nc2nc(Nc3ccc(OCCOC)cc3)ncc2F)c1 [Formula XXVII, N-(3-((5-fluoro-2-((4-(2-methoxyethoxy)phenyl)amino)pyrimidin-4-yl)amino)phenyl)acrylamide]
[3]
  Effect on human platelet-mediated thrombus formation: effect similar to Formula XX-A (ibrutinib)

## C=CC(=O)N1CCC[C@@H](n2nc(-c3ccc(Oc4ccccc4)cc3)c3c(N)ncnc32)C1 [Formula XX-A, 1-[(3R)-3-[4-amino-3-(4-phenoxyphenyl)-1H-pyrazolo[3,4-d]pyrimidin-1-yl]piperidin-1-yl]prop-2-en-1-one, reference compound]
[3]
  Effect on human platelet-mediated thrombus formation: able to limit this process
Human platelets, GPVI
  Inhibition of GPVI platelet aggregation: significantly inhibits
